Data taken from US20080114007A1 (priority 2006, published 2008).

What follows are molecules tested against CSF-1R (Homo sapiens, UniProt P07333) (assay: Peptide (non-phosphorylated) assay, fluorescence polarization competition immunoassay). Settings: 0.7 nM CSF-1R, 308 μM SYEGNSYTFIDPTQ peptide, 1 mM ATP, 80 min; mean of at least three determinations; read-out: c-fms Peptide IC50.
Sequence of CSF-1R (P07333 20-972): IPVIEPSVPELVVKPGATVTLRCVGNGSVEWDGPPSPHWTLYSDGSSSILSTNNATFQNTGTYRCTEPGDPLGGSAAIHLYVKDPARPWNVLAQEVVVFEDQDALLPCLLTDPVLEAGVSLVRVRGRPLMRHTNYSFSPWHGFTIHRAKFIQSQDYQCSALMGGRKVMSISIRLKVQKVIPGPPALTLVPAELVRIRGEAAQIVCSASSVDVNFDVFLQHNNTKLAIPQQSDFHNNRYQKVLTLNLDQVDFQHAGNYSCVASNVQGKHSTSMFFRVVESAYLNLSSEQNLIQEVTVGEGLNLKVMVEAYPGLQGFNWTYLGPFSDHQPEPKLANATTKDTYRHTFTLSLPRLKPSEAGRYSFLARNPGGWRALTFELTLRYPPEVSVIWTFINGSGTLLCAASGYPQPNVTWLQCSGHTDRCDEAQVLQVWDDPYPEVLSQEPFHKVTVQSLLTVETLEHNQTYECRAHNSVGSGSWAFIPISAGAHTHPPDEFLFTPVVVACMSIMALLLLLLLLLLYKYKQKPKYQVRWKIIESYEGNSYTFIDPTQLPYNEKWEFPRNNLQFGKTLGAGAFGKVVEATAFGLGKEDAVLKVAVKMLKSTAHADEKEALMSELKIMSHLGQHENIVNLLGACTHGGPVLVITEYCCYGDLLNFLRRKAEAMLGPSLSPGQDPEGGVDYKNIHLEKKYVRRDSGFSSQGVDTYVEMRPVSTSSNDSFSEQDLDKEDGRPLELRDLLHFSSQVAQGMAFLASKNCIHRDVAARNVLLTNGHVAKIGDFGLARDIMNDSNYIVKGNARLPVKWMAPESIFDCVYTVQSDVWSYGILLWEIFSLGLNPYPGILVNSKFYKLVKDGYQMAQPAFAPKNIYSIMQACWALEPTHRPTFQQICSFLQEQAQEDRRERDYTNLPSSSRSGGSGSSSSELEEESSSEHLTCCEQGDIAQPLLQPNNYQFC
Format: biochemical
Outline: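 Human CSF-1R kinase reaction started with ATP and run 80 min at room temperature, then stopped with EDTA. Phosphopeptide detected by fluorescence polarization competition using anti-phosphotyrosine antibody and PTK green tracer after 30 min. Controls used 4% DMSO, with EDTA added before reaction start for positive controls.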
For CONC(=O)c1cn(-c2ccc3c(c2)CCC3)c2nc(Nc3ccc(Cn4cncn4)cc3)ncc2c1=O [Cpd 283, 8-indan-5-yl-5-oxo-2-(4-[1,2,4]triazol-1-ylmethyl-phenylamino)-5,8-dihydro-pyrido[2,3-d]pyrimidine-6-carboxylic acid methoxy-amide], the IC50 was 0.9 nM. With CONC(=O)c1cn(-c2ccc3c(c2)CCC3)c2nc(Nc3ccc(-n4cccn4)cc3)ncc2c1=O [Cpd 284, 8-indan-5-yl-5-oxo-2-(4-pyrazol-1-yl-phenylamino)-5,8-dihydro-pyrido[2,3-d]pyrimidine-6-carboxylic acid methoxy-amide] the IC50 was 2.2 nM. CCc1ccc(-n2cc(C(=O)NOC)c(=O)c3cnc(Nc4ccc5[nH]ccc5c4)nc32)cc1 [Cpd 285, 8-(4-ethyl-phenyl)-2-(1H-indol-5-ylamino)-5-oxo-5,8-dihydro-pyrido[2,3-d]pyrimidine-6-carboxylic acid methoxy-amide] gave an IC50 of 0.8 nM. Molecule CCc1ccc(-n2cc(C(=O)NOC)c(=O)c3cnc(Nc4ccc5cc[nH]c5c4)nc32)cc1 [Cpd 286, 8-(4-ethyl-phenyl)-2-(1H-indol-6-ylamino)-5-oxo-5,8-dihydro-pyrido[2,3-d]pyrimidine-6-carboxylic acid methoxy-amide] has an IC50 of 1.3 nM. For CONC(=O)c1cn(-c2ccc3c(c2)CCC3)c2nc(Nc3ccc4[nH]ccc4c3)ncc2c1=O [Cpd 287, 8-indan-5-yl-2-(1H-indol-5-ylamino)-5-oxo-5,8-dihydro-pyrido[2,3-d]pyrimidine-6-carboxylic acid methoxy-amide], the IC50 was 0.9 nM. For CCc1ccc(-n2cc(C(=O)NOC)c(=O)c3cnc(Nc4ccc5cn[nH]c5c4)nc32)cc1 [Cpd 288, 8-(4-ethyl-phenyl)-2-(1H-indazol-6-ylamino)-5-oxo-5,8-dihydro-pyrido[2,3-d]pyrimidine-6-carboxylic acid methoxy-amide], the IC50 was 1.5 nM. Work on CONC(=O)c1cn(-c2ccc3c(c2)CCC3)c2nc(Nc3ccc4cc[nH]c4c3)ncc2c1=O [Cpd 289, 8-indan-5-yl-2-(1H-indol-6-ylamino)-5-oxo-5,8-dihydro-pyrido[2,3-d]pyrimidine-6-carboxylic acid methoxy-amide] yielded an IC50 of 2 nM. Molecule CCc1ccc(-n2cc(C(=O)NOC)c(=O)c3cnc(Nc4ccc5c(ccn5C)c4)nc32)cc1 [Cpd 290, 8-(4-ethyl-phenyl)-2-(1-methyl-1H-indol-5-ylamino)-5-oxo-5,8-dihydro-pyrido[2,3-d]pyrimidine-6-carboxylic acid methoxy-amide] has an IC50 of 0.9 nM. CONC(=O)c1cn(-c2ccc3c(c2)CCC3)c2nc(Nc3ccc4c(ccn4C)c3)ncc2c1=O [Cpd 291, 8-indan-5-yl-2-(1-methyl-1H-indol-5-ylamino)-5-oxo-5,8-dihydro-pyrido[2,3-d]pyrimidine-6-carboxylic acid methoxy-amide] gave an IC50 of 1.3 nM. CONC(=O)c1cn(-c2ccc3c(c2)CCC3)c2nc(Nc3ccc(C4CCN(CC(F)(F)F)CC4)cc3)ncc2c1=O [Cpd 292, 8-indan-5-yl-5-oxo-2-{4-[1-(2,2,2-trifluoro-ethyl)-piperidin-4-yl]-phenylamino}-5,8-dihydro-pyrido[2,3-d]pyrimidine-6-carboxylic acid methoxy-amide] showed an IC50 of 6 nM. In the case of CONC(=O)c1cn(-c2ccc3c(c2)CCC3)c2nc(Nc3ccc(C4CCN(CC(F)(F)C(F)(F)F)CC4)cc3)ncc2c1=O [Cpd 293, 8-indan-5-yl-5-oxo-2-{4-[1-(2,2,3,3,3-pentafluoro-propyl)-piperidin-4-yl]-phenylamino}-5,8-dihydro-pyrido[2,3-d]pyrimidine-6-carboxylic acid methoxy-amide], the IC50 is reported as 2.9 nM. In the case of CCc1ccc(-n2cc(C(=O)NOC)c(=O)c3cnc(Nc4ccc5c(c4)OCCOCCOCCOCCOCCO5)nc32)cc1 [Cpd 294, 2-(6,7,9,10,12,13,15,16,18,19-decahydro-5,8,11,14,17,20-hexaoxa-benzocyclooctadecen-2-ylamino)-8-(4-ethyl-phenyl)-5-oxo-5,8-dihydro-pyrido[2,3-d]pyrimidine-6-carboxylic acid methoxy-amide], the IC50 is reported as 0.4 nM. In the case of CCc1ccc(-n2cc(C(=O)NOC)c(=O)c3cnc(Nc4ccc(C5CCN(CCc6ccccc6)CC5)cc4)nc32)cc1 [Cpd 295, 8-(4-ethyl-phenyl)-5-oxo-2-[4-(1-phenethyl-piperidin-4-yl)-phenylamino]-5,8-dihydro-pyrido[2,3-d]pyrimidine-6-carboxylic acid methoxy-amide], the IC50 is reported as 1.2 nM. CCc1ccc(-n2cc(C(=O)NOC)c(=O)c3cnc(Nc4ccc(O[C@@H]5O[C@H](CO)[C@@H](O)[C@H](O)[C@@H]5O)cc4)nc32)cc1 [Cpd 296, 8-(4-ethyl-phenyl)-5-oxo-2-{4-[(2S,3S,4S,5S,6R)(3,4,5-trihydroxy-6-hydroxymethyl-tetrahydro-pyran-2-yloxy)]-phenylamino}-5,8-dihydro-pyrido[2,3-d]pyrimidine-6-carboxylic acid methoxy-amide] was tested, and the IC50 was 0.8 nM. Molecule CCc1ccc(-n2cc(C(=O)NOC)c(=O)c3cnc(Nc4ccc5c(c4)OCCOCCOCCOCCO5)nc32)cc1 [Cpd 297, 8-(4-ethyl-phenyl)-2-(6,7,9,10,12,13,15,16-octahydro-5,8,11,14,17-pentaoxa-benzocyclopentadecen-2-ylamino)-5-oxo-5,8-dihydro-pyrido[2,3-d]pyrimidine-6-carboxylic acid methoxy-amide] has an IC50 of 0.4 nM. CCCN1CCC(c2ccc(Nc3ncc4c(=O)c(C(=O)NOC)cn(-c5ccc6c(c5)CCC6)c4n3)cc2)CC1 [Cpd 298, 8-indan-5-yl-5-oxo-2-[4-(1-propyl-piperidin-4-yl)-phenylamino]-5,8-dihydro-pyrido[2,3-d]pyrimidine-6-carboxylic acid methoxy-amide] gave an IC50 of 0.4 nM. CCc1ccc(-n2cc(C(=O)NOC)c(=O)c3cnc(Nc4ccc(-c5cccc(OC)c5)cc4)nc32)cc1 [Cpd 299, 8-(4-ethyl-phenyl)-2-(3′-methoxy-biphenyl-4-ylamino)-5-oxo-5,8-dihydro-pyrido[2,3-d]pyrimidine-6-carboxylic acid methoxy-amide] gave an IC50 of 32 nM. In the case of CONC(=O)c1cn(-c2ccc3c(c2)CCC3)c2nc(Nc3ccccc3)ncc2c1=O [Cpd 300, 8-indan-5-yl-5-oxo-2-phenylamino-5,8-dihydro-pyrido[2,3-d]pyrimidine-6-carboxylic acid methoxy-amide], the IC50 is reported as 1.5 nM. CCn1cnc2cc(Nc3ncc4c(=O)c(C(=O)NOC)cn(-c5ccc6c(c5)CCC6)c4n3)ccc21 [Cpd 301, 2-(1-ethyl-1H-benzoimidazol-5-ylamino)-8-indan-5-yl-5-oxo-5,8-dihydro-pyrido[2,3-d]pyrimidine-6-carboxylic acid methoxy-amide] showed an IC50 of 0.9 nM. Work on CONC(=O)c1cn(-c2ccc3c(c2)CCC3)c2nc(Nc3ccc4[nH]cnc4c3)ncc2c1=O [Cpd 302, 2-(1H-benzoimidazol-5-ylamino)-8-indan-5-yl-5-oxo-5,8-dihydro-pyrido[2,3-d]pyrimidine-6-carboxylic acid methoxy-amide] yielded an IC50 of 319 nM. With CONC(=O)c1cn(-c2ccc3ccccc3c2)c2nc(Nc3ccc(C4CCN(C)CC4)cc3)ncc2c1=O [Cpd 303, 2-[4-(1-methyl-piperidin-4-yl)-phenylamino]-8-naphthalen-2-yl-5-oxo-5,8-dihydro-pyrido[2,3-d]pyrimidine-6-carboxylic acid methoxy-amide] the IC50 was 1 nM. CCc1ccc(-n2cc(C(=O)NOC)c(=O)c3cnc(Nc4ccc5c(c4)CC(=O)N5)nc32)cc1 [Cpd 304, 8-(4-ethyl-phenyl)-5-oxo-2-(2-oxo-2,3-dihydro-1H-indol-5-ylamino)-5,8-dihydro-pyrido[2,3-d]pyrimidine-6-carboxylic acid methoxy-amide] showed an IC50 of 0.6 nM. CCc1ccc(-n2cc(C(=O)NOC)c(=O)c3cnc(Nc4cc(OC)c(OC)c(OC)c4)nc32)cc1 [Cpd 305, 8-(4-ethyl-phenyl)-5-oxo-2-(3,4,5-trimethoxy-phenylamino)-5,8-dihydro-pyrido[2,3-d]pyrimidine-6-carboxylic acid methoxy-amide] gave an IC50 of 0.7 nM. CCc1ccc(-n2cc(C(=O)NOC)c(=O)c3cnc(Nc4ccc(-c5ccc(N(C)C)cc5)cc4)nc32)cc1 [Cpd 306, 2-(4′-dimethylamino-biphenyl-4-ylamino)-8-(4-ethyl-phenyl)-5-oxo-5,8-dihydro-pyrido[2,3-d]pyrimidine-6-carboxylic acid methoxy-amide] was tested, and the IC50 was 14 nM. Molecule CCc1ccc(-n2cc(C(=O)NOC)c(=O)c3cnc(Nc4ccc(OC5CCNCC5)cc4)nc32)cc1 [Cpd 307, 8-(4-ethyl-phenyl)-5-oxo-2-[4-(piperidin-4-yloxy)-phenylamino]-5,8-dihydro-pyrido[2,3-d]pyrimidine-6-carboxylic acid methoxy-amide] has an IC50 of 0.4 nM. In the case of CCc1ccc(-n2cc(C(=O)NOC)c(=O)c3cnc(Nc4ccc(OCCOC)c(OCCOC)c4)nc32)cc1 [Cpd 308, 2-[3,4-bis-(2-methoxy-ethoxy)-phenylamino]-8-(4-ethyl-phenyl)-5-oxo-5,8-dihydro-pyrido[2,3-d]pyrimidine-6-carboxylic acid methoxy-amide], the IC50 is reported as 0.9 nM. For CCc1ccc(-n2cc(C(=O)NOC)c(=O)c3cnc(Nc4ccc(OC5CCN(C)CC5)cc4)nc32)cc1 [Cpd 309, 8-(4-ethyl-phenyl)-2-[4-(1-methyl-piperidin-4-yloxy)-phenylamino]-5-oxo-5,8-dihydro-pyrido[2,3-d]pyrimidine-6-carboxylic acid methoxy-amide], the IC50 was 0.3 nM. With CCc1ccc(-n2cc(C(=O)NOC)c(=O)c3cnc(Nc4ccc(OC5CCN(CC)CC5)cc4)nc32)cc1 [Cpd 310, 8-(4-ethyl-phenyl)-2-[4-(1-ethyl-piperidin-4-yloxy)-phenylamino]-5-oxo-5,8-dihydro-pyrido[2,3-d]pyrimidine-6-carboxylic acid methoxy-amide] the IC50 was 0.5 nM. CONC(=O)c1cn(-c2ccc3c(c2)CCC3)c2nc(Nc3ccc(OC4CCNCC4)cc3)ncc2c1=O [Cpd 311, 8-indan-5-yl-5-oxo-2-[4-(piperidin-4-yloxy)-phenylamino]-5,8-dihydro-pyrido[2,3-d]pyrimidine-6-carboxylic acid methoxy-amide] gave an IC50 of 0.3 nM.
